Measured values taken from patent EP1724268A1, “COMPOUND HAVING TGF-BETA INHIBITORY ACTIVITY AND PHARMACEUTICAL COMPOSITION CONTAINING SAME” (KIRIN BEER KABUSHIKI KAISHA, priority 2004, dated 2005).
Like-named read-outs stand apart in the source and are kept apart here.

Test system: TGFβ signal
Experiment: TGFβ signal inhibitory activity, (SBE)4-Luc reporter in A549 cells (Test Examples 1A and 1B)
Assay type: cell-based, human
Conditions: Homo sapiens
In short: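 Compounds at 3 µM and 10 µM (some 1 µM) were added with 2 ng/ml TGFβ-1 to A549 cells stably expressing an SBE-driven luciferase, then cultured 4 hr. Chemiluminescent luciferase signal gave % inhibition versus TGFβ-alone and no-TGFβ controls.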

[1] = A549, test compound 3 µM, Reference Examples, Table 1B, read-out: TGFβ inhibition rate, %
[2] = A549, test compound 10 µM, Reference Examples, Table 1B, read-out: TGFβ inhibition rate, %
[3] = A549, read-out: TGFβ inhibition rate, %
[4] = A549, 3 µM, compounds of Reference Examples (Test Example 1B), read-out: TGFβ inhibition rate, %
[5] = A549, 10 µM, compounds of Reference Examples (Test Example 1B), read-out: TGFβ inhibition rate, %

SMILES	inhibition at 3 µM [1] [%]	inhibition at 10 µM [2] [%]	inhibition at 3 µM [4] [%]	inhibition at 10 µM [5] [%]	other results
COc1cc2nccc(Oc3ccc(C)cc3C(=O)C3CCCC3)c2cc1OC [r58]	90	100	–	–	–
COc1cc2nccc(Oc3ccc(C)cc3C(=O)c3ccccc3)c2cc1OC [r72]	–	–	–	–	inhibition at 3 µM [3]: 98%
COc1cc2nccc(Oc3ccc(C)cc3C(=O)c3ccc(C(C)(C)C)cc3)c2cc1OC [r73]	24	81	–	–	–
COc1ccc(Oc2ccnc3cc(OC)c(OC)cc23)c(C(=O)c2ccccc2)c1 [r74]	27	84	–	–	–
COc1cc2nccc(Oc3cc(C)c(Cl)cc3C(=O)c3ccccc3)c2cc1OC [r75]	97	100	–	–	–
COc1cc2nccc(Oc3cccc(C(=O)c4ccccc4)c3)c2cc1OC [r77]	0	46	–	–	–
COc1cc2nccc(Oc3ccc(C(=O)c4cccc(C)c4)cc3)c2cc1OC [r78]	0	57	–	–	–
COc1cc2nccc(Oc3ccccc3C(=O)OCc3ccccc3)c2cc1OC [r103]	20	84	–	–	–
COc1cc2nccc(Oc3ccccc3C(=O)Nc3ccccc3)c2cc1OC [r104]	0	58	–	–	–
COc1cc2nccc(Oc3ccc(C)cc3C(=O)N3CCCCC3)c2cc1OC [r109]	5	66	–	–	–
COc1cc2nccc(Oc3cc4ccccc4cc3C(=O)Nc3cccc4ccccc34)c2cc1OC [r114]	0	96	–	–	–
COc1cc2nccc(Oc3ccc(C)nc3I)c2cc1OC [r116]	99	100	–	–	–
COc1ccc(Oc2ccnc3cc(OCCCl)c(OC)cc23)c(C(C)=O)c1 [r119]	96	97	–	–	–
COc1ccc(Oc2ccnc3cc(OCCN4CCOCC4)c(OC)cc23)c(C(C)=O)c1 [r120]	94	100	–	–	–
COc1ccc(Oc2ccnc3cc(OCCCN4CCOCC4)c(OC)cc23)c(C(C)=O)c1 [r122]	100	100	–	–	–
COc1cc2c(Oc3ccc(C)cc3C(=O)c3ccccc3)ccnc2cc1OCCCl [r123]	98	100	–	–	–
COc1cc2c(Oc3ccc(C)cc3C(=O)c3ccccc3)ccnc2cc1OCCNCCO [r124]	99	100	–	–	–
COc1cc2c(Oc3ccc(C)cc3C(=O)c3ccccc3)ccnc2cc1OCCCN1CCC(CO)CC1 [r135]	100	100	–	–	–
COc1cc2c(Oc3ccc(C)cc3C(=O)c3ccccc3)ccnc2cc1OCCCN1CCNCC1 [r137]	100	100	–	–	–
COc1cc2c(Oc3ccc(C)cc3C(=O)c3ccccc3)ccnc2cc1OCCCN1CCN(C)CC1 [r138]	96	100	–	–	–
COc1cc2c(Oc3ccc(C)cc3C(=O)c3ccccc3)ccnc2cc1OCCCN1CCOCC1 [r139]	99	100	–	–	–
COc1cc2c(Oc3ccc(C)cc3C(=O)c3ccccc3)ccnc2cc1OCCCn1ccnc1 [r140]	85	100	–	–	–
COc1cc2c(Oc3ccc(C)cc3C(=O)c3ccccc3)ccnc2cc1OCCCCNCCO [r142]	100	100	–	–	–

SMILES	inhibition at 3 µM [1] [%]	inhibition at 10 µM [2] [%]	inhibition at 3 µM [4] [%]	inhibition at 10 µM [5] [%]	other results
CCN(CC)CCCCOc1cc2nccc(Oc3ccc(C)cc3C(=O)c3ccccc3)c2cc1OC [r143]	97	100	–	–	–
CCN(CC)CC(O)COc1cc2nccc(Oc3ccc(C)cc3C(=O)c3ccccc3)c2cc1OC (stereo not drawn) [r153]	100	100	–	–	–
COc1cc2c(Oc3ccc(C)cc3C(=O)c3ccccc3)ccnc2cc1OCC(O)CN1CCC(CO)CC1 (stereo not drawn) [r154]	99	100	–	–	–
COc1cc2c(Oc3ccc(C)cc3C(=O)c3ccccc3)ccnc2cc1OCC(O)CN1CCC(N2CCCC2)CC1 (stereo not drawn) [r155]	100	100	–	–	–
COc1cc2c(Oc3ccc(C)cc3C(=O)c3ccccc3)ccnc2cc1OCC(O)Cn1ccnc1 (stereo not drawn) [r160]	98	100	–	–	–
COc1cc2ncnc(Oc3ccc(C)cc3C(=O)c3ccccc3)c2cc1OC [r161]	25	83	–	–	–
COc1ccc(Oc2ncnc3cc(OC)c(OC)cc23)c(C(C)=O)c1 [r162]	5	54	–	–	–
COc1cc2nccc(Oc3ccc(C)cc3C(O)CCCCCCCCCO)c2cc1OC (stereo not drawn) [r165]	–	–	38	89	–
COc1ccc(Oc2ccnc3cc(OC)c(OC)cc23)c(C(O)Cc2ccccn2)c1 (stereo not drawn) [r166]	–	–	24	67	–
COc1cc2nccc(Oc3ccc(C)cc3-c3ccccn3)c2cc1OC [r167]	–	–	98	100	–
COc1cc2nccc(Oc3ccc(C)cc3-c3cccnc3)c2cc1OC [r168]	–	–	22	74	–
COc1cc2nccc(Oc3cc(C)c(C)cc3-c3cccnc3)c2cc1OC [r170]	–	–	76	100	–
COc1cc2nccc(Oc3ccc(-n4ccnc4)cc3I)c2cc1OC [r171]	–	–	11	76	–
CCc1ccc(Oc2ccnc3cc(OC)c(OC)cc23)c(C(C)=O)c1 [r172]	–	–	82	99	–
CCCc1ccc(Oc2ccnc3cc(OC)c(OC)cc23)c(C(C)=O)c1 [r173]	–	–	83	100	–
CCCCc1ccc(Oc2ccnc3cc(OC)c(OC)cc23)c(C(C)=O)c1 [r174]	–	–	57	96	–
COc1cc2nccc(Oc3ccc(O)cc3C(C)=O)c2cc1OC [r176]	–	–	32	67	–
COc1ccc(Oc2ccnc3cc(OC)c(OC)cc23)c(C(C)=O)c1 [r177]	–	–	–	–	inhibition at 3 µM [3]: 94%
CCCCOc1ccc(Oc2ccnc3cc(OC)c(OC)cc23)c(C(C)=O)c1 [r180]	–	–	-2	55	–
COc1cc2nccc(Oc3cc(Cl)ccc3C(C)=O)c2cc1OC [r181]	–	–	42	82	–
COc1cc2nccc(Oc3cc4c(cc3C(C)=O)CCC4)c2cc1OC [r182]	–	–	57	96	–
COc1cc2nccc(Oc3cc(C)c(C(C)C)cc3C(C)=O)c2cc1OC [r183]	–	–	82	100	–
COC(=O)CCCCCCC(=O)c1cc(C)ccc1Oc1ccnc2cc(OC)c(OC)cc12 [r187]	–	–	35	91	–

SMILES	inhibition at 3 µM [1] [%]	inhibition at 10 µM [2] [%]	inhibition at 3 µM [4] [%]	inhibition at 10 µM [5] [%]	other results
COc1cc2nccc(Oc3ccc(C)cc3C(=O)c3ccc(O)cc3)c2cc1OC [r188]	–	–	80	100	–
COc1ccc(Oc2ccnc3cc(OC)c(OC)cc23)c(C(=O)c2nccs2)c1 [r192]	–	–	79	99	–
CO/N=C(\C)c1cc(C)c(C)cc1Oc1ccnc2cc(OC)c(OC)cc12 [r196]	–	–	41	83	–
COc1cc2nccc(Oc3cc(C)c(C)cc3/C(C)=N/OCc3ccccc3)c2cc1OC [r198]	–	–	32	80	–
COc1cc2nccc(Oc3cc(C)c(C)cc3/C(C)=N/Oc3ccccc3)c2cc1OC [r199]	–	–	14	59	–
CCCOC(=O)c1cc2ccccc2cc1Oc1ccnc2cc(OC)c(OC)cc12 [r201]	–	–	79	100	–
COc1cc2nccc(Oc3cccnc3C)c2cc1OC [r202]	–	–	20	54	–
COc1cc2nccc(Oc3cccnc3Br)c2cc1OC [r203]	–	–	19	52	–
COc1cc2nccc(Oc3ccc(F)nc3)c2cc1OC [r205]	–	–	26	57	–
COc1cc2nccc(Oc3ccc(Cl)nc3)c2cc1OC [r206]	–	–	69	94	–
COc1cc2nccc(Oc3cncc(Cl)c3)c2cc1OC [r208]	–	–	18	73	–
COc1cc2nccc(Oc3ccc(C)nc3[N+](=O)[O-])c2cc1OC [r210]	–	–	45	80	–
COc1cc2nccc(Oc3ccc(C)nc3C#C[Si](C)(C)C)c2cc1OC [r212]	–	–	94	100	–
COc1cc2nccc(Oc3ccc(C)nc3Cc3ccccc3)c2cc1OC [r214]	–	–	99	100	–
COc1cc2nccc(Oc3ccc(C)nc3Cc3cccc(C)n3)c2cc1OC [r215]	–	–	72	99	–
COc1cc2nccc(Oc3ccc(C)nc3/C=C/c3ccccc3)c2cc1OC [r216]	–	–	22	73	–
COc1cc2nccc(Oc3ccc(C)nc3C(O)c3ccccc3)c2cc1OC (stereo not drawn) [r217]	–	–	91	100	–
COc1cc2nccc(Oc3ccc(C)nc3C(OC(C)=O)c3ccccc3)c2cc1OC (stereo not drawn) [r218]	–	–	21	56	–
COc1cc2nccc(Oc3ccc(C)nc3C(=O)c3cccc(C)n3)c2cc1OC [r221]	–	–	71	98	–
COc1cc2nccc(Oc3cc(Cl)cnc3OC3CCCC3)c2cc1OC [r222]	–	–	44	100	–
COc1cc2nccc(Oc3ccc(C)nc3-c3ccsc3)c2cc1OC [r255]	–	–	93	100	–
COc1cc2nccc(Oc3ccc(C)nc3-c3cc(C)no3)c2cc1OC [r258]	–	–	99	100	–
COc1cc2nccc(Oc3ccc(C)nc3-c3nccs3)c2cc1OC [r259]	–	–	–	–	inhibition at 1 µM (A549, 1 µM, compounds of Reference Examples (Test Example 1B), read-out: TGFβ inhibition rate, %): 100%
